# Calls of active or inactive are those of the source.
# Experiments:
# [1] = molecular target: Luciferin 4-monooxygenase (Photinus pyralis, UniProt P08659); assay: firefly luciferase enzyme inhibitors, dose response, biochemical, luminescence (AID 1891)
# [2] = Luminescence Cell-Based Dose Confirmation HTS to Identify Inhibitors of Platelet Dense Granule Release. [Related pubchem assays: 1663 (Primary HTS), 1678 (Summary of Project)]; assay type: functional
# Protein Tat = Protein Tat (Human immunodeficiency virus type 1 group M subtype B (isolate HXB2)(HIV-1), UniProt P04608); assay type: functional;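 further: tat binding to TAR RNA read out by fluorescence polarization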
# [3] = molecular target: Glutathione-S-transferase (Schistosoma japonicum, UniProt Q26513); assay: biotin-GST/anti-GST TR-FRET signal inhibitors, dose response, artefact control for Vif-APOBEC3G degradation inhibitor project, biochemical (AID 1117362); assay type: functional
# [4] = HEK293 cell cytotoxicity, dose response, cytotoxicity control, ATP luminescence, dry powder, set 3 (AID 743131); assay type: functional, cell-based
# Heat shock protein HSP90 = Heat shock protein HSP90 (Homo sapiens, UniProt P07900+P08238); assay: tumor Hsp90 inhibitor potency, dose response (AID 712); assay type: functional
# [5] = molecular target: T1, RNA-binding protein pos-1 (Caenorhabditis elegans, UniProt G5EF15); assay: inhibitors of POS-1/mex-3 RNA binding, dose response, biochemical, fluorescence polarization (AID 1964);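 further: purified POS-1 fused to maltose binding protein made in E. coli; potency of compounds blocking POS-1 binding to fluorescent RNA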
# T1 sequence (G5EF15 whole entry): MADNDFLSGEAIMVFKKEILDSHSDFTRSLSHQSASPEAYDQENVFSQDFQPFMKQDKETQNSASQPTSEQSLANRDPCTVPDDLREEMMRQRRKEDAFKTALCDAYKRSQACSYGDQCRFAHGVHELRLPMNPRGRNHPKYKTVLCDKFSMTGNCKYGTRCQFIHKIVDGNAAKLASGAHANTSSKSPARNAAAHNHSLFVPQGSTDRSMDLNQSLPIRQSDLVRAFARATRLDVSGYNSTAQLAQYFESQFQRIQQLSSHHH
# 14-3-3 protein gamma = molecular target: T2, 14-3-3 protein gamma (Homo sapiens, UniProt P61981); assay: modulators of 14-3-3 gamma client binding – dose response (AID 711); assay type: functional
# T2 sequence (P61981 whole entry): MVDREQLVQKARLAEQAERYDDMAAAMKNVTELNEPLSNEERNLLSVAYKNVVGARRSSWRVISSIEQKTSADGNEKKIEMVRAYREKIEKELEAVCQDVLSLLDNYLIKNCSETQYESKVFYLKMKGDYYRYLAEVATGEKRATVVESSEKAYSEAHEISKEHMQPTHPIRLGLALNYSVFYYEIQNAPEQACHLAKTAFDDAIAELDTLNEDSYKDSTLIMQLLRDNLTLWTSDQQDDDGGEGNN
# Troponin, cardiac muscle = Troponin, cardiac muscle (Homo sapiens, UniProt P19429+P45379+P63316); assay: Fluorescence-based biochemical high throughput dose response assay for activators of the calcium sensitivity of cardiac Regulated Thin Filaments (RTF). [Related pubchem assays (depositor defined):AID493008, AID493018, AID504382, AID504383]; assay type: protein-complex assay
# [6] = molecular target: T3, Endoribonuclease toxin MazF (Escherichia coli K-12, UniProt P0AE70); assay: MazF toxin RNase activators, dose response, biochemical, fluorescence, single-stranded RNA substrate, uHTS hits (AID 588481); assay type: functional
# T3 sequence (P0AE70 whole entry): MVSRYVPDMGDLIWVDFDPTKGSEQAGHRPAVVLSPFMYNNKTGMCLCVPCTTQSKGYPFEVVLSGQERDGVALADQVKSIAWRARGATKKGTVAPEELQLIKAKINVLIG
# [7] = molecular target: UDP-galactopyranose mutase (Mycobacterium tuberculosis, UniProt P9WIQ1); assay: Inhibitors of Mycobacterium tuberculosis UDP-galactopyranose mutase (UGM) enzyme Measured in Biochemical System Using Plate Reader - 2105-02_Inhibitor_Dose_CherryPick_Activity. [Related pubchem assays (depositor defined):AID504439]
# [8] = molecular target: T3, Endoribonuclease toxin MazF; assay: fluorescent RNA oligo signal without MazF, dose response, counter-screen for MazEF activator project, biochemical, fluorescence, single-stranded RNase substrate (AID 588502); assay type: functional
# [9] = molecular target: T4, Corticotropin-releasing factor receptor 2/Corticotropin-releasing factor-binding protein (Homo sapiens, UniProt P24387+Q13324); assay: activators of CRF receptor 2 with binding protein – uHTS hits, confirmation (AID 602473); assay type: functional; details: read-out: EC50_Mean
# T4 sequence (Q13324 whole entry): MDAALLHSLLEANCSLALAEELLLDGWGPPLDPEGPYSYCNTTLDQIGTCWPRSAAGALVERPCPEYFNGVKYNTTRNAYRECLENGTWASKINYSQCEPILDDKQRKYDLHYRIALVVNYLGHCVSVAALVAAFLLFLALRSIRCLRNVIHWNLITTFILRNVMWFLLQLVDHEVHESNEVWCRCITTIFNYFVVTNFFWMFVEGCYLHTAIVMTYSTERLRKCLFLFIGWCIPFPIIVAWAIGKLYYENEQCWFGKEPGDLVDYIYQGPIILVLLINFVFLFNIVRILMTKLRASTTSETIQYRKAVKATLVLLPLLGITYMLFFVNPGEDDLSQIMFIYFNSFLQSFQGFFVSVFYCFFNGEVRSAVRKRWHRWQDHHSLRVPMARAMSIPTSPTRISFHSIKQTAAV
# T4 sequence (P24387 whole entry): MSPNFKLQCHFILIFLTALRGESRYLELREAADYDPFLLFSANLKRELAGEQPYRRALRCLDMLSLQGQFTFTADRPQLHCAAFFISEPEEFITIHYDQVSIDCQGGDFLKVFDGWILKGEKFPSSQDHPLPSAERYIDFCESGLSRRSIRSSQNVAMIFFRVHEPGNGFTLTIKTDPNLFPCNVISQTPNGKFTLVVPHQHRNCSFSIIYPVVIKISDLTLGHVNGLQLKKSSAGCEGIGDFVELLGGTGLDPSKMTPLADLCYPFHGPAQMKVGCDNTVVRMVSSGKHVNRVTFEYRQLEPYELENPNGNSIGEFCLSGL
# Paired box protein Pax-8 = Paired box protein Pax-8 (Homo sapiens, UniProt Q06710); assay: inhibitors of PAX8-driven TPO luciferase reporter, dose response, RMG-I cells, cherry-pick (AID 687027); assay type: functional, cell-based;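 further: luciferase reporter driven by Pax8 target thyroperoxidase promoter measured by SteadyGlo luminescence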
# [10] = A549 cell cytotoxicity, dose response, cytotoxicity control, 24 h, CellTiter-Glo luminescence, cherry-picks (AID 1053115); assay type: functional, cell-based; details: A549, 24 h
# [11] = HEK293T cytotoxicity, dose response, cytotoxicity control for miR-122 modulator project, cell-based, inhibitor set, cherry-pick, set 2 (AID 720697); assay type: functional
# [12] = HEK293T cytotoxicity, dose response, cytotoxicity control for miR-122 modulator project, cell-based, activator set, cherry-pick (AID 720690); assay type: functional;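 further: HEK293T human cells scored for general mammalian cytotoxicity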
# [13] = non-specific cell cytotoxicity, dose response, cytotoxicity control for PAX8 inhibitor project, plate reader, dry powder samples (AID 743021); assay type: functional, cell-based
# [14] = cytotoxicity in OVCAR8 ovarian cancer cells, dose response, PAX8 project, cell-based, plate reader, dry powder samples (AID 743197); assay type: functional; details: OVCAR-8
# [15] = A549 cell cytotoxicity, dose response, CellTiter-Glo luminescence, dry powder, set 17 (AID 1117284); assay type: functional, cell-based
# [16] = P. falciparum 3D7-ScDHODH growth inhibitors, dose response, SYBR Green, dry powder samples (AID 1159570); assay type: functional, cell-based;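 further: parasite growth measured after 72 hours of compound exposure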
# [17] = HepG2 cell cytotoxicity, dose response, cytotoxicity control, plate reader, dry powder samples (AID 1159569); assay type: functional, cell-based;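 further: inhibitor potency with signal falling toward the positive control level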
# [18] = P. falciparum Dd2 growth inhibitors, dose response, SYBR Green, dry powder samples, set 9 (AID 1159568); assay type: functional, cell-based
# [19] = P. falciparum Dd2 growth inhibitors, dose response, SYBR Green, cherry-picked samples (AID 1159567); assay type: functional, cell-based
# [20] = P. falciparum Dd2 growth inhibitors, dose response, SYBR Green, dry powder samples (AID 1159566); assay type: functional, cell-based;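 further: potency for growth inhibition with lower SYBR green DNA signal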
# [21] = HepG2 cell cytotoxicity, dose response, cytotoxicity control, cherry-picked samples (AID 1159577); assay type: functional, cell-based
# [22] = Plasmodium falciparum Dd2 Sybr green parasite growth Measured in Cell-Based and Microorganism Combination System Using Plate Reader - 2153-01_Inhibitor_Dose_DryPowder_Activity_Set3.; assay type: functional
# [23] = P. falciparum ATP4 D1247Y mutant growth inhibitors, dose response, NITD609-resistant line, SYBR Green, dry powder (AID 1159571); assay type: functional, cell-based;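 further: parasites synchronized at ring stage by sorbitol before testing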
# Protein Tat, sequence (P04608 whole entry): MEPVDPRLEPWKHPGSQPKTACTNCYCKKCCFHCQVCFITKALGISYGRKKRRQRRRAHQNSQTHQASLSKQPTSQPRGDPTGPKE
# UDP-galactopyranose mutase, sequence (P9WIQ1 whole entry): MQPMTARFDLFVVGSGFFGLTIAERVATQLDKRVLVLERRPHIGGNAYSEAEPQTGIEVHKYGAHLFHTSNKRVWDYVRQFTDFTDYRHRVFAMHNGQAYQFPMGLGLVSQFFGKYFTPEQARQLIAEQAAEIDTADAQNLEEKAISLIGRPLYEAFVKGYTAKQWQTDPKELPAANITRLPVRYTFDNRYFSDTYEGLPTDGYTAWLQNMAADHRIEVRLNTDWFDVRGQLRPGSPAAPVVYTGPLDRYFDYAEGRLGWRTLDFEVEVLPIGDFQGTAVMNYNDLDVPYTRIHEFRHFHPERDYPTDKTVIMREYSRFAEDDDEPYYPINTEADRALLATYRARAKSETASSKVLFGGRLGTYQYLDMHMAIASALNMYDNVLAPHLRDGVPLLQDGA
# Luciferin 4-monooxygenase, sequence (P08659 whole entry): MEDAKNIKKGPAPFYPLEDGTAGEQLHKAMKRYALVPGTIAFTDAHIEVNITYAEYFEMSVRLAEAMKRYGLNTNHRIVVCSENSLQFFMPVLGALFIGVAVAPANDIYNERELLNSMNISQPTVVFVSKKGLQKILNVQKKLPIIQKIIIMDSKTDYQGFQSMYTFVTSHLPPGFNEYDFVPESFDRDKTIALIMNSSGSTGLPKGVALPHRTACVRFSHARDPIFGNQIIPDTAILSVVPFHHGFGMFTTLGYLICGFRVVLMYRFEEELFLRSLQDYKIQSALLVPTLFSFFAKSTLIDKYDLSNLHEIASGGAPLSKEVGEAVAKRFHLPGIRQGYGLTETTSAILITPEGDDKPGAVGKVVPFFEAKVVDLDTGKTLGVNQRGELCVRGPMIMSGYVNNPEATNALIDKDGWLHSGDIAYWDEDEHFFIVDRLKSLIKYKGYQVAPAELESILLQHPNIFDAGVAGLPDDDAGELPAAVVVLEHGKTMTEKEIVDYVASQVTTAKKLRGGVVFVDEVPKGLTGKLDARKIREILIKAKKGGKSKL
# Glutathione-S-transferase, sequence (Q26513 whole entry): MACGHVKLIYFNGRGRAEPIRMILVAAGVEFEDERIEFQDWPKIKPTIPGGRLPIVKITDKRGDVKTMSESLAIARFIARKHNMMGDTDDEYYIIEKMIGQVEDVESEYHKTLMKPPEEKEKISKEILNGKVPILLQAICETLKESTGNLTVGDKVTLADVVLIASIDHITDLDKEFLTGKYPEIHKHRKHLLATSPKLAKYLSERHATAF
# Paired box protein Pax-8, sequence (Q06710 whole entry): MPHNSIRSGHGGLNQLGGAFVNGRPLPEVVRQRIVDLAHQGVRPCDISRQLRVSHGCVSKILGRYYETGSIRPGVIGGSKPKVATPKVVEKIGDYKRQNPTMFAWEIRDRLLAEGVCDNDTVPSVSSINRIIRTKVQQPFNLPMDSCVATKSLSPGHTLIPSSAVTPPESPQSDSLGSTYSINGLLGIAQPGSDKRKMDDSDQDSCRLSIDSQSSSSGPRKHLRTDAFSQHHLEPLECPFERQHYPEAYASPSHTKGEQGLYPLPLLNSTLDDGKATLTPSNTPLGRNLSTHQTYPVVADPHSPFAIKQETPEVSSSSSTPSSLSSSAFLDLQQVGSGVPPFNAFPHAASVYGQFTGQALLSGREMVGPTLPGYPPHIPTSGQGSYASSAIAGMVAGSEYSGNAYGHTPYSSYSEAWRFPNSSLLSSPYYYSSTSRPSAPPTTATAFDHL
smiles,measurement,setting,value
O=C(NC(=S)N1CCCc2ccccc21)c1ccccc1,EC50,[1],> 112 µM (not active)
same,EC50,[2],> 112 µM (not active)
same,IC50,Protein Tat,> 100 µM (active)
same,IC50,[3],90.8 µM (active)
Cc1ccccc1OCCn1c(S)nc2ccccc21,AC50,[4],344 nM (active)
CN(C)c1ccc(/N=C/c2nc(-c3ccccc3)oc2O)cc1,IC50,Heat shock protein HSP90,27.302 µM
same,EC50,[5],5.7 µM (active)
same,IC50,14-3-3 protein gamma,9.68 µM (active)
same,EC50,"Troponin, cardiac muscle",3.71 µM (active)
same,EC50,[6],46.7 µM (inactive)
same,AC50,[7],68.2 µM (active)
same,EC50,[8],56.6 µM (inactive)
same,EC50,[9],7.96 µM (active)
C[C@H](O)C#Cc1ccc2c(c1)O[C@@H](CN(C)Cc1ccc(-c3ccccc3)cc1)[C@@H](C)CN([C@H](C)CO)S2(=O)=O,AC50,Paired box protein Pax-8,4.57 µM (active)
same,AC50,[10],48.6 µM (active)
same,AC50,[11],21.6 µM (active)
same,AC50,[12],22.8 µM (active)
same,AC50,[13],46.3 µM (active)
same,AC50,[14],> 70 µM (inactive)
same,AC50,[15],> 52 µM (inactive)
COc1ccc(-c2ccc([C@H]3[C@@H](C#N)N(C(=O)NC(C)C)[C@H]3CO)cc2)cc1,AC50,[16],3.98 µM (active)
same,AC50,[17],80.6 µM (active)
same,AC50,[18],1.2 µM (active)
same,AC50,[19],890 nM (active)
same,AC50,[20],559 nM (active)
same,AC50,[21],3.33 µM (active)
same,AC50,[22],1.86 µM (active)
same,AC50,[23],874 nM (active)

# From ChEMBL document CHEMBL1201862, “PubChem BioAssay data set” (2004)
